# Measurements from ChEMBL document CHEMBL1201862, “PubChem BioAssay data set” (2004).
# Active and inactive are the calls of the source.
# Key:
# [1] = P. falciparum late gametocyte killing, dose response, luminescence (AID 1117278); format: functional, cell-based;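 also: gametocytes exposed to compound for 24 hours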
# [2] = Jurkat T cell cytotoxicity, dose response, cytotoxicity control for P. falciparum gametocyte viability project, luminescence (AID 1117277); format: functional, cell-based;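 also: potency reflects loss of cellular ATP meaning fewer viable cells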
# [3] = A cytotoxicity screen of small molecule inhibitors of the PhoP region in Salmonella typhi identified in the primary screen. [Related pubchem assays: 1850, 1864, 1985 ]; format: functional
# [4] = molecular target: Nonstructural protein 1 (Influenza A virus, UniProt Q194T2); format: functional, Influenza A virus (A/California/07/2009(H1N1))
# [5] = molecular target: T1, Apoptotic protease-activating factor 1 (Homo sapiens, UniProt O14727); format: functional
# T1 sequence (O14727 whole entry): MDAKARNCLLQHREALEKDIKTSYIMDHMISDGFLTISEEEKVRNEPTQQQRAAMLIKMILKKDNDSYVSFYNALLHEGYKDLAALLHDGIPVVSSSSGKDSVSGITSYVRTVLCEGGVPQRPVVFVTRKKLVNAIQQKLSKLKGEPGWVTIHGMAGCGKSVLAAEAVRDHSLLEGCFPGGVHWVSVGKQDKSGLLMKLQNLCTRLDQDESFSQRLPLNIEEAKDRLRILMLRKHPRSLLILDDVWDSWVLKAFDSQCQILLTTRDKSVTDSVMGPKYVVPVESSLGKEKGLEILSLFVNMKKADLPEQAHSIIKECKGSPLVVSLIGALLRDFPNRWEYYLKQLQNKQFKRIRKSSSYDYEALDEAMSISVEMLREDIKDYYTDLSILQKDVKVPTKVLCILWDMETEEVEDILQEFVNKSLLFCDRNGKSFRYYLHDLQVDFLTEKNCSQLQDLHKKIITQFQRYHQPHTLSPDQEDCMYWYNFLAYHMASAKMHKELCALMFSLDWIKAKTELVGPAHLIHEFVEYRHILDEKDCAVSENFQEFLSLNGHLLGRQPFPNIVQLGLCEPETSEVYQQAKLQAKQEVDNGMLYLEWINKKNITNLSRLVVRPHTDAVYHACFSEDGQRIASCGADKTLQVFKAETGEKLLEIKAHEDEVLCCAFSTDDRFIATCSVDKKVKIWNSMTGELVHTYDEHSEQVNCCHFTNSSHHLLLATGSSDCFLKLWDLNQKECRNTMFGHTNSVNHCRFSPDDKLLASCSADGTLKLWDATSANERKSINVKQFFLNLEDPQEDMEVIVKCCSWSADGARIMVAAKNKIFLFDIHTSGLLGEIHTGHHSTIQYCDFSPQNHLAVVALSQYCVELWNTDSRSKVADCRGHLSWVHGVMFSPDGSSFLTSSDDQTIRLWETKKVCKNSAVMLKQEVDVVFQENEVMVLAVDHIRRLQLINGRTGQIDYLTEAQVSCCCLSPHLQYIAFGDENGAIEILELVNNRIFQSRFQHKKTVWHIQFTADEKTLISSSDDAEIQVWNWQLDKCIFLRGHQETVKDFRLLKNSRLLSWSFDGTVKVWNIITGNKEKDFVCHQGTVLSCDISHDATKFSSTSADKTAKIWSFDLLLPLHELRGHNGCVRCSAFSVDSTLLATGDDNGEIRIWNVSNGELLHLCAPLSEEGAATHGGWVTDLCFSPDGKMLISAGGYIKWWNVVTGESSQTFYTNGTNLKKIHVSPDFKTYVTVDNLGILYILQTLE
# [6] = molecular target: T2, Polyadenylate-binding protein 1 (Homo sapiens, UniProt P11940); assay: PABP1 MLLE–PAM2 interaction inhibitors, dose response, miRNA deadenylation inhibitor project, biochemical, fluorescence polarization, Cy5-PAM2 peptide, secondary (AID 602260); format: functional; details: read-out: IC50_Mean
# [7] = molecular target: T2, Polyadenylate-binding protein 1; assay: PABP1 MLLE–PAM2 binding inhibitor potency, dose response, biochemical, fluorescence polarization, FITC-PAM2 peptide (AID 602259); format: functional; details: read-out: IC50_Mean
# [8] = molecular target: T3, Caspase-6 (Homo sapiens, UniProt P55212); assay: human caspase-6 inhibitors, dose response, biochemical, VEID-R110 fluorescence, cherry-pick (AID 720632)
# T3 sequence (P55212 whole entry): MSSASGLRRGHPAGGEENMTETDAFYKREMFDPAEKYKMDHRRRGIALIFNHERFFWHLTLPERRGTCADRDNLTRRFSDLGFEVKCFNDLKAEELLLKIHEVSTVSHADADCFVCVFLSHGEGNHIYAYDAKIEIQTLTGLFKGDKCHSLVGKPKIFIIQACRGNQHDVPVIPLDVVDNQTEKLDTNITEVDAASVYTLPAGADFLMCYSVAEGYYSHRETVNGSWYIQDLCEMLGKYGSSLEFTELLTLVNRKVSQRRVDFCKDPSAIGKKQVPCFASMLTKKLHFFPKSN
# [9] = molecular target: T4, Caspase-9 (Homo sapiens, UniProt P55211); assay: caspase-9 enzyme inhibition, dose response, selectivity assay for caspase-6 inhibitor project, biochemical, fluorescence, plate reader, cherry-picked samples (AID 743293)
# T4 sequence (P55211 whole entry): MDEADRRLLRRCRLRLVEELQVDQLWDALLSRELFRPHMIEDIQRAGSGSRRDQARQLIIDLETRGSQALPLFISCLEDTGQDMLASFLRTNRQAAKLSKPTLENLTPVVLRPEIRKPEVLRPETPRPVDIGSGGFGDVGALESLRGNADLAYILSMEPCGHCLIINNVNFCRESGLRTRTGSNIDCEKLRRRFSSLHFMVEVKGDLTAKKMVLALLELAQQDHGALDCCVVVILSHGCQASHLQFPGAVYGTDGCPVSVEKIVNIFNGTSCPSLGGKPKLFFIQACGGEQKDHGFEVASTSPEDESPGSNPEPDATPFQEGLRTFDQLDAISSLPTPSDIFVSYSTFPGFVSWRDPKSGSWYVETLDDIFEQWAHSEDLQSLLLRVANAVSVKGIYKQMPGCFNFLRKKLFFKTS
# [10] = molecular target: Caspase-8 (Homo sapiens, UniProt Q14790); assay: caspase-8 inhibition counter-screen, dose response, selectivity assay for caspase-6 inhibitor project, biochemical, Z-IETD-R110 fluorescence, cherry-picked samples (AID 743294)
# [11] = molecular target: Estrogen receptor beta (Homo sapiens, UniProt Q92731);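 also: recombinant ER-beta bound to coactivator SRC1 peptide in presence of estradiol agonist; inhibitors block coactivator peptide binding and lower the FRET signal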
# [12] = molecular target: T5, RNA-binding protein pos-1 (Caenorhabditis elegans, UniProt G5EF15); assay: inhibitors of POS-1/mex-3 RNA binding, dose response, biochemical, fluorescence polarization (AID 1964);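 also: purified POS-1 fused to maltose binding protein made in E. coli; potency of compounds blocking POS-1 binding to fluorescent RNA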
# T5 sequence (G5EF15 whole entry): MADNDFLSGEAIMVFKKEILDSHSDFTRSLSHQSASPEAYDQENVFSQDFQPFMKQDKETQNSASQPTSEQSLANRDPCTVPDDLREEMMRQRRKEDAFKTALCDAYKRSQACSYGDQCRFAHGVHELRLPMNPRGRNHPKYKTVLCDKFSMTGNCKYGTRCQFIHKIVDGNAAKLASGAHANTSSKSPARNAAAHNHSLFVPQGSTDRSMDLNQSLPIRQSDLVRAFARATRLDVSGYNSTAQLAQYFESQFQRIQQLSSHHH
# [13] = molecular target: T6, Zinc finger protein mex-5 (Caenorhabditis elegans, UniProt Q9XUB2); assay: MEX-5/TCR-2 RNA interaction inhibitors, dose response, biochemical, C. elegans, fluorescence polarization (AID 1960)
# T6 sequence (Q9XUB2 whole entry): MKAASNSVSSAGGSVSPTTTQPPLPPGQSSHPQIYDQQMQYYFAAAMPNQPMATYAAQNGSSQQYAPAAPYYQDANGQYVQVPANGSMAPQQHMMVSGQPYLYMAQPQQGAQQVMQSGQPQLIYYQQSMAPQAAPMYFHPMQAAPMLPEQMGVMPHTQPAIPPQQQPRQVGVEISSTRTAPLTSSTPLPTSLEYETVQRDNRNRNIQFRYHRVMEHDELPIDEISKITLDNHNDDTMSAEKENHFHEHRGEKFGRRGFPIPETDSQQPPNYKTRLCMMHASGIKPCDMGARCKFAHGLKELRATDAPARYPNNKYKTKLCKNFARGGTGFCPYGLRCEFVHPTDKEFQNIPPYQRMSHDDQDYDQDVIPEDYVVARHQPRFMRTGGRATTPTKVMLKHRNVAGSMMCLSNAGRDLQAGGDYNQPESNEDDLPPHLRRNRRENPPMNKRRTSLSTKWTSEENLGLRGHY
# [14] = molecular target: T7, Bifunctional protein GlmU (Mycobacterium tuberculosis, UniProt P9WMN3); assay: Inhibitors of Mycobacterial Glucosamine-1-phosphate acetyl transferase (GlmU). Secondary screen.; set-up: species or system Mycobacterium tuberculosis H37Rv
# T7 sequence (P9WMN3 whole entry): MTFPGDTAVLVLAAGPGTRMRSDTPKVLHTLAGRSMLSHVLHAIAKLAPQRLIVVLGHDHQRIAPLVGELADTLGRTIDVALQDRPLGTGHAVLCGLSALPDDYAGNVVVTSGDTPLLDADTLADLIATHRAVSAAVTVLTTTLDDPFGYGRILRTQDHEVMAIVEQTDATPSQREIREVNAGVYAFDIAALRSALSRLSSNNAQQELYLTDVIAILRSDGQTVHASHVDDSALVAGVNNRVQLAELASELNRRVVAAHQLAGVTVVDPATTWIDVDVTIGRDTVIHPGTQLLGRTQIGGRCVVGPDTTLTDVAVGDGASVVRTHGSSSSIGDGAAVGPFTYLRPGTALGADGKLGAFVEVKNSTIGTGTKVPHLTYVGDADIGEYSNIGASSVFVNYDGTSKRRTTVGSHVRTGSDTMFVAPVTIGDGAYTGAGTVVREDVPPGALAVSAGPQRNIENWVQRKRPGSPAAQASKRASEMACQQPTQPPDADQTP
# [15] = Dose-response inhibition of insulin secretion in a rat insulinoma line at 5 mM glucose (AID 1117331); format: functional, cell-based; details: INS-1E
# [16] = molecular target: Cytochrome P450 2D6 (Homo sapiens, UniProt P10635);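 also: CYP2D6 member of a cytochrome P450 panel assay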
# [17] = molecular target: T8, Cytochrome P450 1A2 (Homo sapiens, UniProt P05177);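 also: PubChem cytochrome P450 panel assay, CYP1A2 panel member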
# T8 sequence (P05177 whole entry): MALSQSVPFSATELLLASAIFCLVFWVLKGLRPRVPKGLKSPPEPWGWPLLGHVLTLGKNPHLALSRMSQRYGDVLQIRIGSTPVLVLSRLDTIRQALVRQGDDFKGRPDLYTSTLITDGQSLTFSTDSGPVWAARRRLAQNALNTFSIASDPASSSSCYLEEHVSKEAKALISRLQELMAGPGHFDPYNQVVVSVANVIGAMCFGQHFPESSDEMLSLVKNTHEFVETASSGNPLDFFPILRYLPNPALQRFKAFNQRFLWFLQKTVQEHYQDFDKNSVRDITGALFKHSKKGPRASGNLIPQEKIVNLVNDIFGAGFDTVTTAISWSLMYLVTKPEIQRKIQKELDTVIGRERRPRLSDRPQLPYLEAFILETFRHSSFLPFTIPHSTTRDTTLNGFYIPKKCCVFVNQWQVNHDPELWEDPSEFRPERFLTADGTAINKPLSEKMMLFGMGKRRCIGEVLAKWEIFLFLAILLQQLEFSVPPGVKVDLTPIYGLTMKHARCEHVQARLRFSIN
# [18] = molecular target: T9, Microphthalmia-associated transcription factor (Homo sapiens, UniProt O75030); assay: TRPM1 promoter luciferase signal decrease, dose response, MITF inhibitor project, cell-based, SK-MEL-5, cherry-picked, set 3 (AID 493073); format: functional
# T9 sequence (O75030 whole entry): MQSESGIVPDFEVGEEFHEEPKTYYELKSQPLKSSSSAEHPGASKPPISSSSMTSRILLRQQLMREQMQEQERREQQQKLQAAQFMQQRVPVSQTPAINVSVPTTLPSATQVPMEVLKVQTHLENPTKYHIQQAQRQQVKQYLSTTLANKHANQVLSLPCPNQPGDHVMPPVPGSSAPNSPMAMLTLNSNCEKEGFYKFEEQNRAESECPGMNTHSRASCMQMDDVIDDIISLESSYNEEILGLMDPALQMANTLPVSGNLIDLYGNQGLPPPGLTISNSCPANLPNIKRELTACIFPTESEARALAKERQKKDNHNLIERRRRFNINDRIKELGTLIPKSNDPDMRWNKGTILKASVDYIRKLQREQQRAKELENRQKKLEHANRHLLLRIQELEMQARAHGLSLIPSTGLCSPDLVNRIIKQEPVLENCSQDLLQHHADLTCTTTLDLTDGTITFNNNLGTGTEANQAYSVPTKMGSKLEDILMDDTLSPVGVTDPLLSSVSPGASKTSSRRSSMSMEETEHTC
# T2 sequence (P11940 whole entry): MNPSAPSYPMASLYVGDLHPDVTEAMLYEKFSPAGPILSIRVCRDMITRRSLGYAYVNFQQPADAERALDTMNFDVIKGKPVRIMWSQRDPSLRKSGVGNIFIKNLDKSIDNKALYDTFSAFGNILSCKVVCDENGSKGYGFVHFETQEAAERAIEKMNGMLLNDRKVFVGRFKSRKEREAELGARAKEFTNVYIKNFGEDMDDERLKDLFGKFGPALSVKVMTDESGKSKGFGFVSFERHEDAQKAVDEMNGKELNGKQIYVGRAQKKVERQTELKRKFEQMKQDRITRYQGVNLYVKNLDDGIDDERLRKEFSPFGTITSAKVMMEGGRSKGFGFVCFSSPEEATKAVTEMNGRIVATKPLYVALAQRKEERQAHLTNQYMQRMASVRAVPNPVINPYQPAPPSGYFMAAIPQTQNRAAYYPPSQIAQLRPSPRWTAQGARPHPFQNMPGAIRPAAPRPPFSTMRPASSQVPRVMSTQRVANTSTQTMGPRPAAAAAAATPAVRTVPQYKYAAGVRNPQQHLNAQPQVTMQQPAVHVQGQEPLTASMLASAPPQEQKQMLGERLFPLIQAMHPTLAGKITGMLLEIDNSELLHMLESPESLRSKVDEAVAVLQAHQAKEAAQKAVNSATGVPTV
# Chain of Nonstructural protein 1 (Q194T2 whole entry): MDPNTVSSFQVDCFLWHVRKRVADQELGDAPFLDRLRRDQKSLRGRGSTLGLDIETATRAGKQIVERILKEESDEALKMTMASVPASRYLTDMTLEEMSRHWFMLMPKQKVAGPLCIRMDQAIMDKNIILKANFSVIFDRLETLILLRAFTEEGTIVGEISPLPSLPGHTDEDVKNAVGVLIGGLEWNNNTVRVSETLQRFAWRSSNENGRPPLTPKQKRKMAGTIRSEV
# Chain of Estrogen receptor beta (Q92731 whole entry, the tested form may be a part): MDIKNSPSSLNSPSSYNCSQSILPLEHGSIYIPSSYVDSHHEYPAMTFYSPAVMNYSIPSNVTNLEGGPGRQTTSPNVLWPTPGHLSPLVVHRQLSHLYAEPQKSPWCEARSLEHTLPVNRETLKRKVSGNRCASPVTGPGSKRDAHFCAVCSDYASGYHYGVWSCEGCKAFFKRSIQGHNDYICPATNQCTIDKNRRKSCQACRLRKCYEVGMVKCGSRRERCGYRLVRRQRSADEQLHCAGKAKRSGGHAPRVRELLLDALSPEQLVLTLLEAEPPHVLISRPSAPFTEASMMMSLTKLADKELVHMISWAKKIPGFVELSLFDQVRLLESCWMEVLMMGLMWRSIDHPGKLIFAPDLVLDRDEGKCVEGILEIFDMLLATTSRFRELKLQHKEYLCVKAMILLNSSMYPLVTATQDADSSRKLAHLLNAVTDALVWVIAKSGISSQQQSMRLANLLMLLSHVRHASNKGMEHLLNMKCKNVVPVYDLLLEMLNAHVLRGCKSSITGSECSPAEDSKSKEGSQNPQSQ
# Chain of Caspase-8 (Q14790 217-374 limits assumed): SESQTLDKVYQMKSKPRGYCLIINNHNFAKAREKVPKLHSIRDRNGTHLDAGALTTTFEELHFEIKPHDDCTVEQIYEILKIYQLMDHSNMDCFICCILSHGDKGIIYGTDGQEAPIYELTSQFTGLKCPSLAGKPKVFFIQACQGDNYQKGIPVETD
# Chain of Caspase-8 (Q14790 385-479 limits assumed): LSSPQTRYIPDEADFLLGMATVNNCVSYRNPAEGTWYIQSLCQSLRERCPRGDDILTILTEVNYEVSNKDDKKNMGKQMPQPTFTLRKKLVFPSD
# Chain of Cytochrome P450 2D6 (P10635 whole entry): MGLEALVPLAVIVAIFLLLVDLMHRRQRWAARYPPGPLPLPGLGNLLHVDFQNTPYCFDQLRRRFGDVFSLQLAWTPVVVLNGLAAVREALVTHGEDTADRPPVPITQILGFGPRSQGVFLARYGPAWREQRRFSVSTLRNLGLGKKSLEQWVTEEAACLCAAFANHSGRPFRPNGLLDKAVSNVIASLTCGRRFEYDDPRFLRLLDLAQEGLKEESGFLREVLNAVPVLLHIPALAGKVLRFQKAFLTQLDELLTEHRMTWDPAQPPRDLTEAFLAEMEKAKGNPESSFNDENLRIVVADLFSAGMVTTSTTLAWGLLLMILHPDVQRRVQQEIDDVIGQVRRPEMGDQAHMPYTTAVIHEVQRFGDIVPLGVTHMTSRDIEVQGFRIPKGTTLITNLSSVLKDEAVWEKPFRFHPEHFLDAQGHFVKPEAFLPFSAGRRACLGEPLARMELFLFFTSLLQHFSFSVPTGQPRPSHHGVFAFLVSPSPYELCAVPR
smiles,measurement,setting,value
CC1CCN(C(=O)CSc2ccc(-c3ccc(F)cc3)nn2)CC1,IC50,[1],> 109 µM (inactive)
same,IC50,[2],> 83.3 µM (inactive)
CCOC(=O)CSc1nnc2c(n1)C1(C)CCC2C1(C)C (centres undefined),EC50,[3],> 50 µM (active)
same,IC50,[1],> 109 µM (inactive)
same,IC50,[2],> 83.2 µM (inactive)
Oc1cc(NCCc2cccnc2)cc2cccnc12,IC50,[4],6.64 µM (active)
same,IC50,[5],18.4 µM (active)
same,IC50,[6],> 66 µM (inactive)
same,IC50,[7],42.3 µM (inactive)
same,AC50,[8],2.89 µM (active)
same,AC50,[9],> 70 µM (inactive)
same,AC50,[10],30.1 µM (active)
COC(=O)C(O)(c1ccc(N(C)C(=O)OC(C)C)cc1)C(F)(F)F (centres undefined),IC50,[11],> 50 µM (not active)
COc1ccccc1N1C(=O)C(Cl)=C(Nc2ccccc2O)C1=O,EC50,[12],34.7 µM (active)
same,EC50,[13],8.19 µM (inconclusive)
same,IC50,[14],90.9 µM (active)
Cn1c(SCC(=O)N2CCCCC2)nnc1-c1ccc(S(=O)(=O)N2CCOCC2)cc1,IC50,[1],> 109 µM (inactive)
same,IC50,[2],> 83.3 µM (inactive)
CCN(CC)CCOc1ccc(Cc2ccccc2)cc1,IC50,[15],> 33.3 µM (inactive)
same,AC50,[16],25.1 µM (inconclusive)
same,AC50,[17],12.6 µM (inconclusive)
Cc1nn(-c2ccccc2Cl)c(Cl)c1/C=N/Nc1cccc(C(=O)O)c1,IC50,[14],137 µM (active)
same,AC50,[18],5.5 µM (active)
CCC1=C(C)CN(C(=O)NCCc2ccc(S(=O)(=O)NC(=O)N[C@H]3CC[C@H](C)CC3)cc2)C1=O [GLIMEPIRIDE],IC50,[15],0.00406 µM (active)
